{"source": "paper PMC5218480", "about": "(PLoS ONE, 2017)", "system": "MV-4-11 cells", "test": "Gene expression microarray analysis (Affymetrix PrimeView) and GSEA", "format": "cell-based, human", "set-up": "RFU PODN (11730768_x_at) / Fold change /veh PODN (11730768_x_at) / RFU LINC00158 (11744669_a_at) / Fold change /veh LINC00158 (11744669_a_at) / RFU DUSP10 (11751237_a_at) / Fold change /veh DUSP10 (11751237_a_at) / RFU ID3 (11757404_x_at) / Fold change /veh ID3 (11757404_x_at) / RFU PLEKHG5 (11737974_s_at) / Fold change /veh PLEKHG5 (11737974_s_at) / RFU LRRC4B (11730491_at) / Fold change /veh LRRC4B (11730491_at) / RFU GIMAP4 (11747438_a_at) / Fold change /veh GIMAP4 (11747438_a_at) / RFU KRT8 (11758183_x_at) / Fold change /veh KRT8 (11758183_x_at) / RFU CNN1 (11734310_a_at) / Fold change /veh CNN1 (11734310_a_at) / RFU VPS37D (11726825_at) / Fold change /veh VPS37D (11726825_at) / RFU C10orf10 (11716522_x_at) / Fold change /veh C10orf10 (11716522_x_at) / RFU KIR2DL2 /// KIR2DL4 /// KIR2DL5A /// KIR2DL5B /// KIR2DS1 /// KIR2DS2 /// KIR2DS3 /// KIR2DS4 /// KIR3DL3 /// KIR3DL3 /// KIR3DS1 (11738374_at) / Fold change /veh KIR2DL2 /// KIR2DL4 /// KIR2DL5A /// KIR2DL5B /// KIR2DS1 /// KIR2DS2 /// KIR2DS3 /// KIR2DS4 /// KIR3DL3 /// KIR3DL3 /// KIR3DS1 (11738374_at) / RFU C1QL1 (11718748_at) / Fold change /veh C1QL1 (11718748_at) / RFU TMPRSS4 (11747572_a_at) / Fold change /veh TMPRSS4 (11747572_a_at) / RFU HAMP (11756126_x_at) / Fold change /veh HAMP (11756126_x_at) / RFU RNFT2 (11725882_a_at) / Fold change /veh RNFT2 (11725882_a_at) / RFU NR4A2 (11747474_a_at) / Fold change /veh NR4A2 (11747474_a_at) / RFU ABCC12 (11746883_a_at) / Fold change /veh ABCC12 (11746883_a_at) / RFU TMEM136 (11760407_x_at) / Fold change /veh TMEM136 (11760407_x_at) / RFU CLDN22 /// WWC2 (11732394_at) / Fold change /veh CLDN22 /// WWC2 (11732394_at) / RFU HLA-DPB1 (11760878_x_at) / Fold change /veh HLA-DPB1 (11760878_x_at) / RFU SPINT1 (11716480_a_at) / Fold change /veh SPINT1 (11716480_a_at) / RFU GAP43 (11754022_s_at) / Fold change /veh GAP43 (11754022_s_at) / RFU A4GNT (11735810_at) / Fold change /veh A4GNT (11735810_at) / RFU PRB3 (11715151_x_at) / Fold change /veh PRB3 (11715151_x_at) / RFU TUBB4B (11761932_at) / Fold change /veh TUBB4B (11761932_at) / RFU CAPN14 (11732068_a_at) / Fold change /veh CAPN14 (11732068_a_at) / RFU TMCC2 (11721928_a_at) / Fold change /veh TMCC2 (11721928_a_at) / RFU IRGQ (11745062_a_at) / Fold change /veh IRGQ (11745062_a_at) / RFU FAM174B (11720279_a_at) / Fold change /veh FAM174B (11720279_a_at) / RFU TMPRSS4 (11748680_a_at) / Fold change /veh TMPRSS4 (11748680_a_at) / RFU FAM212B (11763350_a_at) / Fold change /veh FAM212B (11763350_a_at) / RFU PLEKHG5 (11743358_a_at) / Fold change /veh PLEKHG5 (11743358_a_at) / RFU ZSCAN30 (11745921_a_at) / Fold change /veh ZSCAN30 (11745921_a_at) / RFU CMKLR1 (11741424_a_at) / Fold change /veh CMKLR1 (11741424_a_at) / RFU LOC101060620 /// MAPK8IP1 (11723275_at) / Fold change /veh LOC101060620 /// MAPK8IP1 (11723275_at) / RFU SPTSSB (11747773_x_at) / Fold change /veh SPTSSB (11747773_x_at) / RFU PRSS12 (11739890_at) / Fold change /veh PRSS12 (11739890_at) / RFU BIN1 (11741810_x_at) / Fold change /veh BIN1 (11741810_x_at) / RFU WNT11 (11732464_a_at) / Fold change /veh WNT11 (11732464_a_at) / RFU C10orf10 (11716521_a_at) / Fold change /veh C10orf10 (11716521_a_at) / RFU C5orf56 (11738089_at) / Fold change /veh C5orf56 (11738089_at) / RFU CYB561 (11721691_x_at) / Fold change /veh CYB561 (11721691_x_at) / RFU ANKRD19P (11752326_a_at) / Fold change /veh ANKRD19P (11752326_a_at) / RFU OR2T12 /// OR2T33 /// OR2T8 (11738714_s_at) / Fold change /veh OR2T12 /// OR2T33 /// OR2T8 (11738714_s_at) / RFU VCAN (11748164_a_at) / Fold change /veh VCAN (11748164_a_at) / RFU JSRP1 (11732532_at) / Fold change /veh JSRP1 (11732532_at) / RFU KRTAP10-11 (11738290_x_at) / Fold change /veh KRTAP10-11 (11738290_x_at) / RFU MYO3A (11730013_a_at) / Fold change /veh MYO3A (11730013_a_at) / RFU EBF3 (11725865_a_at) / Fold change /veh EBF3 (11725865_a_at) / RFU CAMK2N1 (11719241_x_at) / Fold change /veh CAMK2N1 (11719241_x_at) / RFU C5orf56 (11738088_a_at) / Fold change /veh C5orf56 (11738088_a_at) / RFU OLFML3 (11715873_a_at) / Fold change /veh OLFML3 (11715873_a_at) / RFU LOC100653217 /// NTM (11731650_a_at) / Fold change /veh LOC100653217 /// NTM (11731650_a_at) / RFU MAPK11 (11762145_a_at) / Fold change /veh MAPK11 (11762145_a_at) / RFU FIZ1 (11724087_x_at) / Fold change /veh FIZ1 (11724087_x_at) / RFU OASL (11726364_x_at) / Fold change /veh OASL (11726364_x_at) / RFU SOX15 (11748057_x_at) / Fold change /veh SOX15 (11748057_x_at) / RFU CD79A (11719716_a_at) / Fold change /veh CD79A (11719716_a_at) / RFU HIST1H1D (11736915_at) / Fold change /veh HIST1H1D (11736915_at) / RFU CASKIN2 (11723855_a_at) / Fold change /veh CASKIN2 (11723855_a_at) / RFU LOC730098 (11760151_x_at) / Fold change /veh LOC730098 (11760151_x_at) / RFU OR4N2 (11742367_at) / Fold change /veh OR4N2 (11742367_at) / RFU PRRT2 (11749266_a_at) / Fold change /veh PRRT2 (11749266_a_at) / RFU SNX32 (11753110_a_at) / Fold change /veh SNX32 (11753110_a_at) / RFU CDHR5 (11726645_a_at) / Fold change /veh CDHR5 (11726645_a_at) / RFU RCAN1 (11760418_a_at) / Fold change /veh RCAN1 (11760418_a_at) / RFU FAM167A (11723789_a_at) / Fold change /veh FAM167A (11723789_a_at) / RFU FAM26E (11764081_at) / Fold change /veh FAM26E (11764081_at) / RFU ISYNA1 (11749810_s_at) / Fold change /veh ISYNA1 (11749810_s_at) / RFU ACY1 (11761880_at) / Fold change /veh ACY1 (11761880_at) / RFU 11764098_at / Fold change /veh 11764098_at / RFU SAMD14 (11745864_x_at) / Fold change /veh SAMD14 (11745864_x_at) / RFU NPB (11741838_a_at) / Fold change /veh NPB (11741838_a_at) / RFU TMPRSS6 (11731388_a_at) / Fold change /veh TMPRSS6 (11731388_a_at) / RFU KRTAP10-2 (11738614_at) / Fold change /veh KRTAP10-2 (11738614_at) / RFU ARHGAP8 /// PRR5-ARHGAP8 (11727945_x_at) / Fold change /veh ARHGAP8 /// PRR5-ARHGAP8 (11727945_x_at) / RFU KRTAP5-7 /// NADSYN1 (11734609_at) / Fold change /veh KRTAP5-7 /// NADSYN1 (11734609_at) / RFU RASL12 (11751679_a_at) / Fold change /veh RASL12 (11751679_a_at) / RFU CDKN2B (11736163_a_at) / Fold change /veh CDKN2B (11736163_a_at) / RFU PRF1 (11729649_at) / Fold change /veh PRF1 (11729649_at) / RFU, ZNF638 /// ZNF638-IT1 / Fold change vs veh, ZNF638 /// ZNF638-IT1 / RFU, PANK3 / Fold change vs veh, PANK3 / RFU, SH3YL1 / Fold change vs veh, SH3YL1 / RFU, ZEB2 / Fold change vs veh, ZEB2 / RFU, NRIP1 / Fold change vs veh, NRIP1 / RFU, PTTG1IP / Fold change vs veh, PTTG1IP / RFU, CAPN2 / Fold change vs veh, CAPN2 / RFU, MED14 / Fold change vs veh, MED14 / RFU, SNORA58 / Fold change vs veh, SNORA58 / RFU, C1orf63 / Fold change vs veh, C1orf63 / RFU, LRRFIP1 / Fold change vs veh, LRRFIP1 / RFU, NDUFAF7 / Fold change vs veh, NDUFAF7 / RFU, SLC12A2 / Fold change vs veh, SLC12A2 / RFU, IBTK / Fold change vs veh, IBTK / RFU, ESF1 / Fold change vs veh, ESF1 / Fold change vs veh, TMEM50B / RFU, TAOK1 / Fold change vs veh, TAOK1 / RFU, ACBD3 / Fold change vs veh, ACBD3 / RFU, TMA16 / Fold change vs veh, TMA16 / RFU, RWDD3 / Fold change vs veh, RWDD3 / RFU, BCAT1 / Fold change vs veh, BCAT1 / RFU, EDEM3 / Fold change vs veh, EDEM3 / RFU, TMEM33 / Fold change vs veh, TMEM33 / RFU, WDR75 / Fold change vs veh, WDR75 / RFU, AHCTF1 / Fold change vs veh, AHCTF1 / RFU, TFRC / Fold change vs veh, TFRC / RFU, ZDHHC17 / Fold change vs veh, ZDHHC17 / RFU, NOM1 / Fold change vs veh, NOM1 / RFU, ARL8B / Fold change vs veh, ARL8B / RFU, ZBTB11 / Fold change vs veh, ZBTB11 / RFU, TAMM41 / Fold change vs veh, TAMM41 / RFU, KIAA1704 /// LOC100996395 / Fold change vs veh, KIAA1704 /// LOC100996395 / RFU, ING1 / Fold change vs veh, ING1 / RFU, TRMT61B / Fold change vs veh, TRMT61B / RFU, FUBP3 / Fold change vs veh, FUBP3 / RFU, TP53 / Fold change vs veh, TP53 / RFU, TNKS2 / Fold change vs veh, TNKS2 / RFU, ZFP14 / Fold change vs veh, ZFP14 / RFU, ACTR2 / Fold change vs veh, ACTR2 / RFU, PPP3R1 / Fold change vs veh, PPP3R1 / RFU, PIK3R1 / Fold change vs veh, PIK3R1 / RFU, HNRNPA1 / Fold change vs veh, HNRNPA1 / RFU, RNF170 / Fold change vs veh, RNF170 / RFU, ZNF28 / Fold change vs veh, ZNF28 / RFU, RNGTT / Fold change vs veh, RNGTT / RFU, OGT / Fold change vs veh, OGT / RFU, BRD1 / Fold change vs veh, BRD1 / RFU, MARS / Fold change vs veh, MARS / RFU, ZNF655 / Fold change vs veh, ZNF655 / RFU, FAHD1 / Fold change vs veh, FAHD1 / RFU, BDP1 / Fold change vs veh, BDP1 / RFU, LRRCC1 / Fold change vs veh, LRRCC1 / RFU, ARID1A / Fold change vs veh, ARID1A / RFU, ZNF146 / Fold change vs veh, ZNF146 / RFU, ZNF330 / Fold change vs veh, ZNF330 / RFU, GPN3 / Fold change vs veh, GPN3 / RFU, C9orf123 / Fold change vs veh, C9orf123 / RFU, N4BP2L2 / Fold change vs veh, N4BP2L2 / RFU, ARFIP1 / Fold change vs veh, ARFIP1 / RFU, FAM179B / Fold change vs veh, FAM179B / RFU, BCL10 / Fold change vs veh, BCL10 / RFU, UHRF1BP1L / Fold change vs veh, UHRF1BP1L / RFU, BET1 / Fold change vs veh, BET1 / RFU, CNOT2 / Fold change vs veh, CNOT2 / RFU, ZNF268 / Fold change vs veh, ZNF268 / Fold change vs veh, ZNF507 / RFU, DGCR2 / Fold change vs veh, DGCR2 / RFU, WDSUB1 / Fold change vs veh, WDSUB1 / Fold change vs veh, HSP90B1 /// MIR3652 / RFU, ADSS / Fold change vs veh, ADSS / RFU, GK / Fold change vs veh, GK / RFU, ZNF148 / Fold change vs veh, ZNF148 / RFU, TAF9 / Fold change vs veh, TAF9 / RFU, SLC1A5 / Fold change vs veh, SLC1A5 / RFU, SLMO2 / Fold change vs veh, SLMO2 / RFU, ABCC4 / Fold change vs veh, ABCC4 / RFU, LOC101060439 /// RAP1B / Fold change vs veh, LOC101060439 /// RAP1B / RFU, RFX7 / Fold change vs veh, RFX7 / RFU, GTPBP10 / Fold change vs veh, GTPBP10 / RFU, CNEP1R1 / Fold change vs veh, CNEP1R1 / RFU, BIVM-ERCC5 /// ERCC5 / Fold change vs veh, BIVM-ERCC5 /// ERCC5 / RFU, ILF3 / Fold change vs veh, ILF3 / RFU 11762660_at / Fold change /veh 11762660_at / RFU VCAN (11757783_s_at) / Fold change /veh VCAN (11757783_s_at) / RFU DDX43 (11728927_at) / Fold change /veh DDX43 (11728927_at) / RFU KRT8 (11758188_x_at) / Fold change /veh KRT8 (11758188_x_at) / RFU NKD1 (11759106_at) / Fold change /veh NKD1 (11759106_at) / RFU SRD5A1 (11742802_a_at) / Fold change /veh SRD5A1 (11742802_a_at) / RFU TPSAB1 /// TPSB2 (11721975_s_at) / Fold change /veh TPSAB1 /// TPSB2 (11721975_s_at) / RFU GSTM3 (11746129_a_at) / Fold change /veh GSTM3 (11746129_a_at) / RFU IL23R (11737362_x_at) / Fold change /veh IL23R (11737362_x_at) / RFU TMEM51 (11727254_a_at) / Fold change /veh TMEM51 (11727254_a_at) / RFU PIWIL2 (11732686_x_at) / Fold change /veh PIWIL2 (11732686_x_at) / RFU ORM1 (11744905_x_at) / Fold change /veh ORM1 (11744905_x_at) / RFU CCDC152 (11743942_at) / Fold change /veh CCDC152 (11743942_at) / RFU ECM1 (11717891_a_at) / Fold change /veh ECM1 (11717891_a_at) / RFU IL23R (11748794_a_at) / Fold change /veh IL23R (11748794_a_at) / RFU TNFAIP8L3 (11732012_x_at) / Fold change /veh TNFAIP8L3 (11732012_x_at) / RFU MBOAT4 (11741988_at) / Fold change /veh MBOAT4 (11741988_at) / RFU 11764193_at / Fold change /veh 11764193_at / RFU TMEM53 (11763286_at) / Fold change /veh TMEM53 (11763286_at) / RFU MAGEB2 (11727129_at) / Fold change /veh MAGEB2 (11727129_at) / RFU TMEM200A (11744735_a_at) / Fold change /veh TMEM200A (11744735_a_at) / RFU CCDC152 (11751479_a_at) / Fold change /veh CCDC152 (11751479_a_at) / RFU FAM211A (11726209_a_at) / Fold change /veh FAM211A (11726209_a_at) / RFU RGS16 (11746705_a_at) / Fold change /veh RGS16 (11746705_a_at) / RFU VCAN (11755009_s_at) / Fold change /veh VCAN (11755009_s_at) / RFU RHOB (11743442_s_at) / Fold change /veh RHOB (11743442_s_at) / RFU RGS16 (11720943_a_at) / Fold change /veh RGS16 (11720943_a_at) / RFU RGS16 (11720944_at) / Fold change /veh RGS16 (11720944_at) / RFU, VPS4B / Fold change vs veh, VPS4B / RFU, CREB1 / Fold change vs veh, CREB1 / RFU, DNAJC13 / Fold change vs veh, DNAJC13 / RFU, GNAQ / Fold change vs veh, GNAQ / RFU, CDK5R1 / Fold change vs veh, CDK5R1 / RFU, ZRANB3 / Fold change vs veh, ZRANB3 / RFU, CUL4A / Fold change vs veh, CUL4A / RFU, CCNY / Fold change vs veh, CCNY / RFU, UFL1 / Fold change vs veh, UFL1 / RFU, COG3 / Fold change vs veh, COG3 / RFU, DIAPH2 / Fold change vs veh, DIAPH2 / RFU, SKA2 / Fold change vs veh, SKA2 / RFU, AFF3 / Fold change vs veh, AFF3 / RFU, LMF1 / Fold change vs veh, LMF1 / RFU, IPO11 / Fold change vs veh, IPO11 / RFU, DFFB / Fold change vs veh, DFFB / RFU, FOXP1 / Fold change vs veh, FOXP1 / RFU, CARD8 / Fold change vs veh, CARD8 / RFU, STRN3 / Fold change vs veh, STRN3 / RFU, ADK / Fold change vs veh, ADK / RFU, RASSF2 / Fold change vs veh, RASSF2 / RFU, WIPF1 / Fold change vs veh, WIPF1 / RFU, LARP1B / Fold change vs veh, LARP1B / RFU, RASA1 / Fold change vs veh, RASA1 / RFU, RB1 / Fold change vs veh, RB1 / RFU, PPFIA1 / Fold change vs veh, PPFIA1 / RFU, MAT2A / Fold change vs veh, MAT2A / RFU, CCT5 / Fold change vs veh, CCT5 / RFU, WDR92 / Fold change vs veh, WDR92 / RFU, CUX1 / Fold change vs veh, CUX1 / RFU, TTC7A / Fold change vs veh, TTC7A / RFU, TMEM135 / Fold change vs veh, TMEM135 / RFU, DEPTOR / Fold change vs veh, DEPTOR / RFU, CPM / Fold change vs veh, CPM / RFU, DNAJB6 / Fold change vs veh, DNAJB6 / RFU, CACNA2D3 / Fold change vs veh, CACNA2D3 / RFU, DTX4 / Fold change vs veh, DTX4 / RFU, TFCP2 / Fold change vs veh, TFCP2 / RFU, GMCL1 /// GMCL1P1 / Fold change vs veh, GMCL1 /// GMCL1P1 / RFU, AEBP2 / Fold change vs veh, AEBP2 / RFU, SNHG1 /// SNORD22 /// SNORD25 /// SNORD26 /// SNORD27 /// SNORD28 /// SNORD29 /// SNORD31 / Fold change vs veh, SNHG1 /// SNORD22 /// SNORD25 /// SNORD26 /// SNORD27 /// SNORD28 /// SNORD29 /// SNORD31 / Fold change (Aza/veh), C12orf56 (ProbeSet 11735607_a_at) / Fold change (ACY-1035/veh), C12orf56 (ProbeSet 11735607_a_at) / Fold change (Aza/veh), FGFR1OP (ProbeSet 11751329_s_at) / Fold change (ACY-1035/veh), FGFR1OP (ProbeSet 11751329_s_at) / Fold change (Aza/veh), VPS36 (ProbeSet 11739960_a_at) / Fold change (ACY-1035/veh), VPS36 (ProbeSet 11739960_a_at) / RFU SYPL1 (11715823_x_at) / Fold change /veh SYPL1 (11715823_x_at) / RFU IGFBP7 (11715501_s_at) / Fold change /veh IGFBP7 (11715501_s_at) / RFU REEP3 (11722064_at) / Fold change /veh REEP3 (11722064_at) / RFU IGLL1 (11728026_x_at) / Fold change /veh IGLL1 (11728026_x_at): dose or concentration left out as unconfirmed", "details": "ProbeSet 11758440_s_at; LIST B", "data": [{"smiles": "Nc1ncn([C@@H]2O[C@H](CO)[C@@H](O)[C@H]2O)c(=O)n1", "note": "[azacitidine]", "values": [{"measurement": "RFU, RFX7", "value": 45.74, "unit": "RFU"}]}]}
